# From PMC3152580 (Journal of the American Chemical Society, 2011)
# Target: E. coli Alkaline Phosphatase (AP) (Escherichia coli, UniProt P00634)
# Format: biochemical
# Conditions: pH 8
# Chain of E. coli Alkaline Phosphatase (AP) (P00634 22-471): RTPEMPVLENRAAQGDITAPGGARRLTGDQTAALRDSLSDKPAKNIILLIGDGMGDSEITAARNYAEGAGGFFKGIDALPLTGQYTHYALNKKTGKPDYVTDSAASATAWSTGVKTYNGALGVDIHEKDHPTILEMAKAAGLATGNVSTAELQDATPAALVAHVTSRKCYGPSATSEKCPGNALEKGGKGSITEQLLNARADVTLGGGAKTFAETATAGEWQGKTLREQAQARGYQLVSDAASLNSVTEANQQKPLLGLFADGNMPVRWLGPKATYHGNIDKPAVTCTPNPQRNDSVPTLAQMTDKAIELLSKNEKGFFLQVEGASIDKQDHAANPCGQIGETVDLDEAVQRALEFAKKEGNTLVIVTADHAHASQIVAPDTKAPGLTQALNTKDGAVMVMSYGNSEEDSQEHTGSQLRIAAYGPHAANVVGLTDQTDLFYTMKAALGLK
compound,measurement,value
O=S(=O)(O)O [sulfate],differential binding energy between Pi and sulfate binding,at least 8.5 kcal/mol
same,inhibition of AP by sulfate,No significant inhibition
